Experimental data as given in patent US8741965B2, “Method of administering a pheromone composition to an animal to modify the animals behavior over an extended period of time” (Sergeant's Pet Care Products, Inc., priority 2011, dated 2014).

How the values were obtained:
rabbit pups = conditions: presented on its own to rabbit pups; Schaal et al. 2003; cited from earlier work
[1] = system: dogs diagnosed as nervous; experiment: Collars and heart rate of nervous dogs, 24 h basal and fog horn startle (Example 5); assay type: in vivo, dog; conditions: collar
Experimental: Dogs diagnosed as being “nervous” were treated with four different treatments on different days: Placebo collar, Pheromone only collar (Serg), Rabbit INTEROMONE® collar (RP) (prepared in accordance with Example 1), and INTEROMONE® Plus Pheromone collar (Serg+RP) (prepared according to formulation provided in Example 3). Each dog experienced a given collar for 24 hours. Heart rate of the dogs was measured by remote telemetry. FIG. 22 illustrates the effects of the collars on heart rate collected over a period of 24 hours.
Each dog experienced a loud noise (fog horn) during a 2 second blast. The noise startled the dogs. Each dog had the collar on before, during and after the startle experience. […] The data illustrates that Serg alone had no effect on the startled dog heart rate. […] The data further indicate that only the RP is effective in reducing the heart rate of startled dogs.

adult anxious dogs = experiment: Collars, heart rate and behavior in adult anxious dogs, Latin square, foghorn startle (Example 6); assay type: in vivo, dog
Experimental: The objective of this study was to assess efficacy of pheromones/INTEROMONE® compositions to modulate heart rate and behavior in adult anxious dogs (trembling, cowering, shy). The dogs (8.1±0.18 kg; estimated 5-12 yr intact males) were obtained from a local research facility. Body weights and feed intake were recorded. Each dog was housed in a separately ventilated room with a minimum of 12 m^2 of floor space. Heart rate (HR) and surface temperature was measured using a telemetry system (Data Science International, St. Paul, Minn.). Behavior was recorded on a DVR and later reviewed by a trained individual. A scan sample was used with a recording interval of 5 min over 24 hours.
The dogs were treated with four different treatments on different days: Placebo collar (no Pheromone/INTEROMONE®), Pheromone only collar (Serg), Rabbit pheromone as INTEROMONE® collar (RP) (prepared in accordance with Example 1), and INTEROMONE® plus Pheromone collar (Serg+RP) (prepared in accordance with Example 3). At the end of 24 hours with a given collar, each dog was startled with a 110 db foghorn placed 12 cm from the dog's head while behavior and heart rate were recorded. Each dog received each treatment in a Latin square design with repeated measures over time. This model allowed evaluation of effects of treatment, dog, treatment by dog, time, treatment by time and dog by time.

anxious dogs = experiment: Efficacy of pheromone/INTEROMONE collars on dog heart rate, 24 h baseline and after Fog Horn startle (Example 4); assay type: in vivo
Experimental: Heart rate and surface temperature were measured by telemetry.
The study was conducted in two phases: Baseline and after startle. In the baseline study each of the four dogs received each collar treatment in random order for two days at a time. Heart rate and surface temperature were collected each 5 seconds for 24 hours. In the second phase, dogs were startled with a 110 dB Fog Horn and heart rate was measured each 1 second for 10 minutes before and 2 hours after startle.

dogs = experiment: Spray to face of dogs, heart rate for two hours (Example 10); assay type: in vivo, dog
Experimental: A spray composition comprising rabbit pheromone as an INTEROMONE® was prepared in accordance with Example 9. Four dogs were fitted with cloth jackets that contained electrodes to measure their heart rate. One dog was sprayed with the 2-methylbut-2-enal composition, one dog was sprayed with a placebo, and two dogs were sprayed with pheromone-based products currently on the market for purposes of modifying behavior. […] Data were collected for two hours following application of the spray to the facial/snout region of the four dogs. The control period was indicated as time zero (“0”) on FIG. 1 and FIG. 2.

C/C=C(\C)C=O [RP, 2-methylbut-2-enal]
concentration sufficient to elicit full nipple search and grasping behavior (as low as) (rabbit pups): 10 ng/mL
heart rate collected over 24 hours ([1]; basal testing, versus placebo, FIG. 22): increased heart rate
heart rate during startle ([1]; fog horn 2 second blast, versus control, FIG. 24): lower heart rate during startle compared to control dogs
HR after startle (adult anxious dogs; collar 24 h, 110 db foghorn, placebo 157.8±7.2, P<0.01): 124.5±7.2 bpm
time pacing (adult anxious dogs; collar, placebo 3.8±0.02, P<0.05): 3.0±0.2%
time lying down (adult anxious dogs; collar, placebo 63.2±4.8, P=0.01): 87.4±5.4 % of time
effect on dog HR (summary) (adult anxious dogs; collars): lowered HR
heart rate over 24 hours with collar (overall and individual dogs) (anxious dogs; baseline phase, versus Placebo, FIG. 19): increased the heart rate of dog 1
heart rate after startle (individual dogs) (anxious dogs; collar, 110 dB Fog Horn startle, FIG. 20): Dogs 1 and 4 had reduced heart rate
decline in heart rate from hour of startle (hour 1) to next hour (hour 2), slope of regression (anxious dogs; collar, after startle, FIG. 21, placebo 15 bpm): 26.6 bpm
reduction of average dog heart rate (dogs; FIG. 1): 24.5 beats/min per hour
heart rate reduction over the two hour period (dogs; compared to marketed products and placebo): 30%
